Read-outs that look alike come from different tables or passages of the source.
Experiments:
[1] = system: A/Hong Kong/2369/2009 (H1N1) oseltamivir resistant; experiment: microbe, parasite or virus in culture; conditions: Influenza A virus, H1N1, MDCK, read-out: IC50, Visual Assay
[2] = system: A/Hong Kong/2369/2009 (H1N1) oseltamivir resistant; experiment: microbe, parasite or virus in culture; conditions: Influenza A virus, H1N1, MDCK, read-out: IC50, Neutral Red Uptake Assay
[3] = system: A/Hong Kong/2369/2009 (H1N1) oseltamivir resistant
[4] = system: A/Hong Kong/2369/2009 (H1N1) oseltamivir resistant; experiment: microbe, parasite or virus in culture; assay type: cell-based; conditions: Influenza A virus, H1N1, MDCK, read-out: IC90, VYR Assay
[5] = system: A/Hong Kong/2369/2009 (H1N1) oseltamivir resistant; remark: listed apart in the source

With `Nc1ccn([C@@H]2O[C@H](CO)[C@@H](O)[C@H]2F)c(=O)n1` [2’-deoxy-2’-fluorocytidine, 2'-deoxy-2'-fluorocytidine] the IC50 [1] was 2100 nM, the IC50 [2] was 7800 nM and the “SI (CC50/IC50), Visual Assay” value [3] was over 48. For the same compound, the IC90 [4] was 6300 nM and the “SI (CC50/IC50), Neutral Red Uptake Assay” value [5] was over 12.8.
In the case of `Nc1ccn([C@@H]2O[C@H](CO)[C@@H](O)C2(F)F)c(=O)n1` [2’-deoxy-2’, 2’-difluorocytidine, reference compound], the IC50 [1] is reported as 50 nM, the IC50 [2] is reported as 54 nM and the “SI (CC50/IC50), Visual Assay” value [3] is reported as over 200. For the same compound, the IC90 [4] was 30 nM and the “SI (CC50/IC50), Neutral Red Uptake Assay” value [5] was over 1900.

Source: paper PMC3216401 (Antiviral research, 2011)
